{"source": "patent US6682732B1", "about": "“Treatment of lesions” (The University of Bath, priority 1998, dated 2004)", "key": {"[1]": {"test_system": "Staphylococcus aureus 6751", "assay": "Bacterial growth rate by optical density, 96 well plate (Tests 6(d), 6(e))", "format": "cell-based", "description": "(§1) Bacteria were seeded into nutrient broth (NB) and grown over night at 37° C. The culture was then counted and normalised to give a final cell concentration of 1.8×10^7 cells well^−1 into the wells of a 96 well plate in fresh nutrient broth. The optical density of each well was monitored every 15 minutes as a measure of the growth rate of each bacterial species. Growth curves were generated for each species and the maximal rate of growth (logarithmic phase) was measured. Cells were treated to a range of experimental conditions in which the growth rate of cells was related to a control of untreated cells. The results were expressed as a percentage of the growth rate of the control cells.\n(§2) (i) At a fixed concentration of hypoxanthine (100 μM) a range of purified XO protein concentrations were added at time 0 minutes. The optical density was followed and the growth rate calculated.\n(§3) (ii) The growth rate was also measured in relation to the concentration of hypoxanthine, using 30 μg of XO with cells seeded as described above."}, "[2]": {"test_system": "Lactobacillus casei 6375", "assay": "Bacterial growth rate by optical density, 96 well plate (Tests 6(d), 6(e))", "format": "cell-based", "details": "highest concentration", "description": "as §1, §2, §3"}, "[3]": {"test_system": "Escherichia coli NCTC 86", "assay": "Peroxynitrite effect on cell viability, colony count (Test 6(a))", "format": "cell-based", "details": "E. coli; 100 μM to 0.01 μM; FIG. 1", "description": "(§4) To obtain cells used in this test, the infective bacterial strain Escherichia coli NCTC 86 (E.coli) was cultured on nutrient agar at 37° until colony formation occurred, usually overnight. This stock culture was used for subsequent experiments including sub-culturing in nutrient broth and plated onto agar weekly. Experimental cultures of E.coli were set up overnight in nutrient broth from single colonies on an agar plate. Cells were harvested and counted using a standard curve of known absorbance at 470 nm against viable cell count. Peroxynitrite was generated by the method of Crow et al BIOCHEM. 34 pages 3544 to 3552 (1995). In accordance with that method, a mixture of sodium nitrite and hydrogen peroxide was reacted under acid conditions then immediately quenched by the addition of sodium hydroxide. The concentration of ONOO^− formed was measured using an absorption coefficient of 1670 M^−1 cm^−1 in a spectrophotometer at a wavelength of 303 nm. Solutions of different concentrations for use in (a) below were obtained by dilution of the product solution using PBS.\nCells cultured as described above were diluted to suitable working concentrations (10^4-10^5 Cells Ml^−1) in sterile phosphate buffered saline (PBS). […] Viable cells formed colonies on the agar and were counted. […]"}, "[4]": {"test_system": "S. enteritidis", "assay": "Peroxynitrite effect on cell viability, colony count (Test 6(a))", "format": "cell-based", "description": "Cells cultured as described above were diluted to suitable working concentrations (10^4-10^5 Cells Ml^−1) in sterile phosphate buffered saline (PBS). ONOO^− at a range of concentrations from 100 μM to 0.01 μM was added as a bolus dose to cells and incubated at room temperature for ten minutes. Aliquots were taken from the cell cultures and plated on to nutrient agar and incubated in a warm room at 37° C. overnight. Viable cells formed colonies on the agar and were counted. The number of colonies formed was related to an untreated control and a graph of the results is shown in FIG. 1, which illustrates the effect of ONOO^− on cell viability."}, "[5]": {"test_system": "E. coli", "assay": "Effect of peroxynitrite scavenger on bacterial growth, growth curves by absorbance (Test 6(c))", "format": "cell-based", "description": "E. coli were seeded into nutrient broth at 2.10^7 cell ml^−1 and incubated at 37° C. under atmospheric air conditions (that is, 21% oxygen saturation). Four separate test samples of volume 1 ml were prepared by addition at 1 hour of incubation as follows:\n1 Peroxynitrite at concentration 100 μM.\n2 Peroxynitrite at 100 μM and quercetin (peroxynitrite scavenger) at 100 μμM.\n3 Xanthine oxidase (53.2 μg) and xanthine at 100 μM.\n4 Xanthine oxidase (53.2 μg) and NADH at 100 μM.\nCorresponding controls were also prepared, and the growth curves generated over time determined by monitoring absorbance."}, "[6]": {"test_system": "Straphylococcu aureus", "assay": "Incubation of Gram positive bacteria with SIN-1, growth", "format": "cell-based"}, "[7]": {"assay": "Nitric oxide release from pure bovine xanthine oxidase with NADH and nitrite under hypoxic conditions (ozone chemiluminescence, Tests 1-3)", "format": "biochemical", "description": "The production of nitric oxide in the following tests and examples was analysed using an ozone chemiluminescence assay in a continuous flow apparatus (Sievers NOA 280) that allows the real time analysis of NO production. The apparatus was modified to allow a constant stream of nitrogen to flow into the reaction chamber. Chemiluminescence data were collected by a data acquisition system; the mean NO produced in parts per billion (ppb) was calculated from readings taken every second and shown as NO ppb/s. Progress curves, of molar production of NO against time, were calculated by taking into account the gas flow and successively integrating the ppb/s curves. […]\n(d) Samples of NO were taken from the reaction cell by a needle that was connected to a Sievers Nitric Oxide Analyser (NOA-280 ) and the results were recorded for analysis using a computer.\n(e) At time (t) 0 minutes, the NOA-280 started the measurement of NO from the reaction cell. At t=1 minute, the contents of the “substrates” bijou were injected into the reaction cell using a 1 ml syringe and the background NO was measured.\n(f) At t=5 minutes, the contents of the “milk” bijou were injected into the reaction cell using a 1 ml syringe and the release of NO was monitored for a further 20 minutes. […]"}, "[8]": {"test_system": "E.coli", "assay": "Effect of xanthine oxidase derived species on cell viability at a range of oxygen concentrations (Test 6(b))", "format": "cell-based, Escherichia coli", "details": "XO, NADH, NaNO2 system", "description": "as §4, with “Solutions of different concentrations for use in (a) below were obtained by dilution of the product solution using PBS.” left out\nE.coli were cultured as described above. […] Desired oxygen concentrations were generated by delivery of a mixture of oxygen and nitrogen in appropriate proportions and determined using a Clark type O2 electrode. […] Viable cells formed colonies on the agar and were counted. Viable cell counts were performed in triplicate and the results expressed as a percentage viable count in each case related to a non enzyme control of the same oxygen concentration. […]"}, "[9]": {"test_system": "S. enteritidis", "assay": "Effect of xanthine oxidase derived species on cell viability at a range of oxygen concentrations (Test 6(b))", "format": "cell-based", "details": "XO, NADH, NaNO2 system", "description": "Aliquots were taken and incubated with a reaction system consisting of bovine Xanthine oxidase (XO) (53.2 μgml^−1), nicotinamide adenine dinucleotide in reduced form (NADH) (300 μM), sodium nitrite, (NaNO2) 1 mM and oxygen at a range of concentrations. […] This reaction was followed at 37° C. for 30 min with mixing before an aliquot was taken and plated onto agar and incubated in a warm room at 37° C. Viable cells formed colonies on the agar and were counted. Viable cell counts were performed in triplicate and the results expressed as a percentage viable count in each case related to a non enzyme control of the same oxygen concentration. […] The range of oxygen tensions used covers those in which XO has previously been considered to be active, namely superoxide generation (21% O2 saturation) and nitric oxide production (0% O2 saturation)."}}}
{"compound": "OO", "note": "[H2O2, hydrogen peroxide]", "values": [{"measurement": "growth inhibition in the presence of H2O2", "setting": "[1]; S. aureus, concentration ranges used", "result": "very limited"}]}
{"compound": "O=c1[nH]c(=O)c2c[nH]nc2[nH]1", "note": "[Oxypurinol]", "values": [{"measurement": "effect on growth rate when added alone", "setting": "[2]", "result": "no effect on growth rate"}]}
{"compound": "O=NOO", "note": "[Peroxynitrite]", "values": [{"measurement": "effect on cell viability (viable count)", "setting": "[3]", "result": "profound inhibitory effect"}, {"measurement": "effect on viability", "setting": "[4]", "result": "reduce viability"}, {"measurement": "killing (growth curves)", "setting": "[5]; sample (1): peroxynitrite 100 μM added at 1 hour, 21% oxygen saturation", "result": "strong killing"}]}
{"compound": "N=c1c[n+](N2CCOCC2)[n-]o1", "note": "[SIN-1, 3-morpholinosydnonimine]", "values": [{"measurement": "growth on incubation with SIN-1", "setting": "[6]", "result": "reduced growth in dependence on the amount of added SIN-1"}]}
{"compound": "O=c1c(O)c(-c2ccc(O)c(O)c2)oc2cc(O)cc(O)c12", "note": "[quercetin]", "values": [{"measurement": "effect of scavenger on peroxynitrite killing", "setting": "[5]; sample (2): peroxynitrite 100 μM and quercetin 100 μμM", "result": "clear effect in reducing killing"}]}
{"compound": "XOR: Bovine xanthine oxidase (XOR), Biozyme, Blaenavon, UK; 10.7 mg/ml, batch 104AX", "values": [{"measurement": "optimum pH for the production of NO from XOR", "setting": "[7]", "result": "~5.5", "unit": "pH"}, {"measurement": "killing at oxygen concentrations of about 21%", "setting": "[8]", "result": "about 5%"}, {"measurement": "killing at oxygen concentrations of about 21%", "setting": "[9]", "result": "about 10%"}, {"measurement": "growth inhibition by XO", "setting": "[1]; hypoxanthine 100 μM, compared with Lactobacillus, FIG. 3", "result": "less marked growth inhibition"}]}
